For one experiment, the system named is M5076. The experiment is described as follows: In vivo cytotoxicity against mouse M5076 cells. Type of experiment: functional, organism-based.
Another experiment deals with P388. The experiment can be described thus: In vivo cytotoxicity against mouse P388 cells. Format: functional, organism-based.

The source made the active and inactive calls. No cut-off for these calls is given here.

Regarding `O=C1N[C@H]2[C@H](O)[C@H](O)[C@@H](O)[C@H](O)[C@@H]2c2cc3c(c(O)c21)OCO3`, the outcome in the experiment on M5076 and in the experiment on P388 was Active.

Values taken from ChEMBL document CHEMBL1159209, “Antineoplastic agents, 294. Variations in the formation of pancratistatin and related isocarbostyrils in Hymenocallis littoralis” (J Nat Prod, 1995).
